From the supplement of paper PMC10721915

How the values were obtained:
Test in all cases: relative cell growth vs untreated control (GI, NCI-DTP normalisation with time-zero) (fraction of control growth); higher = more growth / less inhibition
Settings in all cases: treatment time: 120 h
[1] = test system: A204
Protocol: (§1)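 Cancer cell lines in 96-well plates were treated 48 h after seeding with M4076 (ATM inhibitor) and berzosertib (ATR inhibitor), alone or mixed, in 4-fold dilutions for 120 h. Protein was read by sulforhodamine B staining, background-subtracted and normalised NCI-DTP style to untreated control growth. Rows with one concentration equal to 0 are monotherapy.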

[2] = test system: ASPC1
Protocol: as §1

[3] = test system: HT1080
Protocol: as §1

[4] = test system: HT29
Protocol: as §1

[5] = test system: IGROV1
Protocol: as §1

[6] = test system: LOVO
Protocol: as §1

[7] = test system: MDAMB436
Protocol: as §1

[8] = test system: MHHES1
Protocol: as §1

[9] = test system: RDES
Protocol: as §1

[10] = test system: SW620
Protocol: as §1

COc1cc2ncc3c(c2cc1-c1cn(C)nc1C)n(-c1c(F)cncc1OC)c(=O)n3C [M4076] + CNCc1ccc(-c2cc(-c3nc(-c4ccc(S(=O)(=O)C(C)C)cc4)cnc3N)on2)cc1 [berzosertib]
relative cell growth
Settings	[1]	[2]	[3]	[4]	[5]	[6]	[7]	[8]	[9]	[10]
concentration of first compound 0.0195 µM, concentration of partner 0 M	1.25	1.2	1.1	1.3	1.27	1.25	1.1	1.19	1.1	1.08
concentration of first compound 0.0195 µM, concentration of partner 0.2 µM	0.675	0.322	0.762	0.0171	0.543	0.105	0.856	0.662	1.16	0.95
concentration of first compound 0.0781 µM, concentration of partner 0 M	1.16	1.08	0.574	1.23	1.36	1.21	1.15	1.15	1.01	1.09
concentration of first compound 0.0781 µM, concentration of partner 0.2 µM	0.9	0.194	0.753	0.0537	0.527	0.209	0.625	0.505	1.16	0.848
concentration of first compound 0.313 µM, concentration of partner 0 M	1.1	1.2	0.481	1.19	1.18	1.09	0.941	1.05	0.941	1.01
concentration of first compound 0.313 µM, concentration of partner 0.2 µM	0.654	0.0757	-0.0371	0.00799	0.376	0.0984	0.374	0.17	1.13	0.449
concentration of first compound 1 µM, concentration of partner 0 M	0.83	0.84	0.54	0.888	0.9	0.971	0.753	0.809	0.836	0.958
concentration of first compound 1 µM, concentration of partner 0.0195 µM	0.965	0.803	0.752	0.81	0.964	0.763	0.817	0.753	0.933	0.922
concentration of first compound 1 µM, concentration of partner 0.0781 µM	0.785	0.418	0.155	0.27	0.604	0.508	0.574	0.224	0.872	0.646
concentration of first compound 1 µM, concentration of partner 0.313 µM	0.205	-0.0794	-0.168	-0.0312	0.0905	-0.0419	0.148	0.0239	0.395	0.168
concentration of first compound 1 µM, concentration of partner 1.25 µM	-0.0708	-0.118	-0.178	-0.0506	-0.0208	-0.0608	-0.0222	-0.0145	0.0966	0.0263
concentration of first compound 1 µM, concentration of partner 5 µM	-0.102	-0.115	-0.234	-0.0437	-0.0274	-0.0633	-0.02	-0.0266	-0.0939	-0.014
concentration of first compound 1.25 µM, concentration of partner 0 M	0.914	0.943	0.332	1.11	1.02	1.1	0.84	0.97	0.877	0.96
concentration of first compound 1.25 µM, concentration of partner 0.2 µM	0.685	0.0458	-0.114	0.00308	0.327	-0.000928	0.292	0.0696	0.973	0.293
concentration of first compound 5 µM, concentration of partner 0 M	0.524	0.675	0.478	0.933	0.48	0.981	0.684	0.65	0.681	0.916
concentration of first compound 5 µM, concentration of partner 0.2 µM	0.337	0.0314	-0.101	-0.00294	0.0986	-0.0311	0.206	0.05	0.706	0.269
